The compounds below were run against T1, TLR7 (Mus musculus, UniProt P58681) (assay: In vitro TLR7 small molecule screening: murine TNFα production by bone marrow-derived murine macrophages). Settings: murine TNFα by ELISA after overnight culture; 1000 to 0.06 nM; non-linear regression.
T1 construct: endogenous in cells; host or cells: Balb/c mouse bone marrow-derived macrophages, differentiated with M-CSF
T1 sequence (P58681 27-1050): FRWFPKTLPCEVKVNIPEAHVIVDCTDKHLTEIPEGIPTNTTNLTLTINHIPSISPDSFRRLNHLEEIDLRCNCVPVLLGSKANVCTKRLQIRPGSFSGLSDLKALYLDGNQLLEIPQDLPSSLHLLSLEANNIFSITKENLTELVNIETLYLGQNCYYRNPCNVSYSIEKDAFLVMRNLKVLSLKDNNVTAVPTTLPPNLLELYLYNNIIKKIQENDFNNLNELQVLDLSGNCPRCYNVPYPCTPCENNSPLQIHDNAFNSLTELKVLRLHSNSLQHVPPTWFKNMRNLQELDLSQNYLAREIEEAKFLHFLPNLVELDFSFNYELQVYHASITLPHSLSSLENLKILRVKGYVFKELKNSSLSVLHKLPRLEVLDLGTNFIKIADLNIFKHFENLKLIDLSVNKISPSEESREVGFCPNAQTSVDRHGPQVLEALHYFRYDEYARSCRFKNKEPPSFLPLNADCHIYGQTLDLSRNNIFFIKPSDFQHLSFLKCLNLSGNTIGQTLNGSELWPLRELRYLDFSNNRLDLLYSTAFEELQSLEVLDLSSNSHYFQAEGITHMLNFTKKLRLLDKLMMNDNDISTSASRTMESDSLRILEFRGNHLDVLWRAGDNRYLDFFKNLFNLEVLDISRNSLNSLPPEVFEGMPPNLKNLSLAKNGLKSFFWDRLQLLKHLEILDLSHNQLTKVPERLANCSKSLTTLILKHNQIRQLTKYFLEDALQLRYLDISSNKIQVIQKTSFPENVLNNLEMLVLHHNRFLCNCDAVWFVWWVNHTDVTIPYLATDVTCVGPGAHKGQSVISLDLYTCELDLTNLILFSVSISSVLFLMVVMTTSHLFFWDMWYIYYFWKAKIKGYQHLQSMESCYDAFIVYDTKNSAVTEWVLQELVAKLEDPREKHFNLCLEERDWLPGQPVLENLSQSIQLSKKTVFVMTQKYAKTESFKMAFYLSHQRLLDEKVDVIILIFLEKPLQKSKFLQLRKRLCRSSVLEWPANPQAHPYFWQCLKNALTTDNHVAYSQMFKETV
Assay type: cell-based
Procedure: Murine macrophages were derived from bone marrow cells from a Balb/c mouse. Briefly, murine bone marrow cells were isolated and resuspended in cDMEM media (high glucose DMEM (HyClone) supplemented with 10% fetal bovine serum (HyClone), 1 mM Sodium Pyruvate (HyClone), 2 mM L-glutamine (Gibco), 10 mM HEPES (HyClone), 1×NEAA (Gibco), 50 U/mL penicillin, 50 U/mL streptomycin (HyClone)) and seeded at 5e5 cells/mL in the presence of 20 ng/mL murine M-CSF (Peprotech) and incubated at 37° C., 5% CO2 for 7 days to differentiate into murine macrophages.
After differentiation, bone marrow-derived murine macrophages were plated in 96-well flat bottom microtiter plates (80,000/well) along with titrating concentrations of TLR7 small molecules ranging from 1000 to 0.06 nM in cRPMI media (RPMI-1640 (HyClone) supplemented with 10% fetal bovine serum (HyClone), 1 mM Sodium Pyruvate (HyClone), 2 mM L-glutamine (Gibco), 10 mM HEPES (HyClone), 1×NEAA (Gibco), 50 U/mL penicillin, 50 U/mL streptomycin (HyClone)). After overnight culture, supernatants were harvested and murine TNFα levels were determined by ELISA (BioLegend). Table 4. […] Data was analyzed using GraphPad Prism 7.01 software (GraphPad Software) and EC50 values calculated using non-linear regression. The TLR7 small molecules were active, stimulating production of murine TNFα in a dose-dependent manner from the murine macrophages. Compound A is represented by the formula: […]

| SMILES | EC50 [µM] |
| --- | --- |
| CCOCc1nc2c(N)nc3ccccc3c2n1CC(C)(C)OCCNC(=O)C(C)(C)NC(=O)OCc1ccccc1 [Compound 1.1, benzyl (1-((2-((1-(4-amino-2-(ethoxymethyl)-1H-imidazo[4,5-c]quinolin-1-yl)-2-methylpropan-2-yl)oxy)ethyl)amino)-2-methyl-1-oxopropan-2-yl)carbamate] | 0.02 |
| CCOCc1nc2c(NC(=O)[C@H](C)NC(=O)OC(C)(C)C)nc3ccccc3c2n1CC(C)(C)OCCNC(=O)C(C)(C)NC(=O)OCc1ccccc1 [Compound 1.3, benzyl (S)-(1-((2-((1-(4-(2-((tert-butoxycarbonyl)amino)propanamido)-2-(ethoxymethyl)-1H-imidazo[4,5-c]quinolin-1-yl)-2-methylpropan-2-yl)oxy)ethyl)amino)-2-methyl-1-oxopropan-2-yl)carbamate] | 1.68 |
| CCOCc1nc2c(N)nc3ccccc3c2n1CC(C)(C)OCCNC(=O)OC(C)(C)C [Compound 1.4, tert-butyl (2-((1-(4-amino-2-(ethoxymethyl)-1H-imidazo[4,5-c]quinolin-1-yl)-2-methylpropan-2-yl)oxy)ethyl)carbamate] | 0.0012 |
| CCOCc1nc2c(NC(=O)[C@H](CCCNC(N)=O)NC(=O)[C@@H](NC(=O)OCC3c4ccccc4-c4ccccc43)C(C)C)nc3ccccc3c2n1CC(C)(C)OCCNC(=O)OC(C)(C)C [Compound 1.8, (9H-fluoren-9-yl)methyl ((S)-1-(((S)-1-((1-(2-(2-((tert-butoxycarbonyl)amino)ethoxy)-2-methylpropyl)-2-(ethoxymethyl)-1H-imidazo[4,5-c]quinolin-4-yl)amino)-1-oxo-5-ureidopentan-2-yl)amino)-3-methyl-1-oxobutan-2-yl)carbamate] | 0.059 |

Second part, the compound after the results:

| EC50 [µM] | SMILES |
| --- | --- |
| 0.004 | CCOCc1nc2c(NC(=O)[C@H](CCCNC(N)=O)NC(=O)[C@@H](N)C(C)C)nc3ccccc3c2n1CC(C)(C)OCCNC(=O)OC(C)(C)C [Compound 1.5, tert-butyl (2-((1-(4-((S)-2-((S)-2-amino-3-methylbutanamido)-5-ureidopentanamido)-2-(ethoxymethyl)-1H-imidazo[4,5-c]quinolin-1-yl)-2-methylpropan-2-yl)oxy)ethyl)carbamate] |
| 0.657 | CCOCc1nc2c(NC(=O)[C@H](C)N)nc3ccccc3c2n1CC(C)(C)OCCNC(=O)C(C)(C)NC(=O)OCc1ccccc1 [Compound 1.6, benzyl (S)-(1-((2-((1-(4-(2-aminopropanamido)-2-(ethoxymethyl)-1H-imidazo[4,5-c]quinolin-1-yl)-2-methylpropan-2-yl)oxy)ethyl)amino)-2-methyl-1-oxopropan-2-yl)carbamate] |
| 0.503 | CCOCc1nc2c(NC(=O)[C@H](C)NC(=O)C3CCCN3C(=O)OC(C)(C)C)nc3ccccc3c2n1CC(C)(C)OCCNC(=O)C(C)(C)NC(=O)OCc1ccccc1 (stereo partly drawn) [Compound 1.7, tert-butyl 2-(((S)-1-((2-(ethoxymethyl)-1-(5,5,11,11-tetramethyl-3,6-dioxo-1-phenyl-2,10-dioxa-4,7-diazadodecan-12-yl)-1H-imidazo[4,5-c]quinolin-4-yl)amino)-1-oxopropan-2-yl)carbamoyl)pyrrolidine-1-carboxylate] |
| 0.073 | CCOCc1nc2c(N)nc3ccccc3c2n1CC(C)(C)OCCN [Compound A, reference compound] |

Each compound was assayed on BMDM with SK-BR-3 (HER2pos) (assay: mTNFα from mouse bone marrow derived macrophages co-cultured with SK-BR-3 (HER2pos) cells). Settings: 24 hours co-culture with HER2pos SK-BR-3.
Assay type: cell-based
Procedure: (§1) The ability of an anti-HER2-TLR7 conjugate to specifically activate mouse macrophages when bound to tumor cells by HER2 was assessed in vitro as follows. Bone marrow cells were harvested from BALB/cJ mouse femurs and tibias using a 27-gauge needle attached to a 3 mL syringe filled with growth media (DMEM supplemented with 10% Fetal Bovine Serum, 1 mM Sodium Pyruvate, 1× GlutaMAX-1, 1× Non-Essential Amino Acids, 10 mM HEPES and 0.5% Penicillin/Streptomycin). Bone marrow cells were centrifuged, and RBC lysed before being counted and resuspended at a concentration 5×10^5/mL in growth media. Ten mL of cell suspension was placed in 10 cm dishes and 20 ng/mL murine macrophage-colony-stimulating factor (mM-CSF) was added. Cells were incubated for two days, media replaced with fresh growth media containing 20 ng/mL mM-CSF, and then cultured for a further four days. BMDM and tumor cell lines SK-BR-3 (HER2pos) or MDA-MB-468 (HER2neg) were removed from plates with Accutase cell detachment solution and counted. […] Murine TNFα (mTNFα) levels in the supernatant were determined by mTNFα ELISA Kit (BioLegend) and read on an Envision Plate Reader (Perkin Elmer, Waltham, Mass.) according to manufactures instructions. mTNFα levels were then graphed using GraphPad Prism 7.01 software (GraphPad Software, San Diego, Calif.) and EC50 values generated using non-linear regression curve fit.

| SMILES | activation of mouse bone marrow cells (mTNFα) |
| --- | --- |
| CCOCc1nc2c(N)nc3ccccc3c2n1CC(C)(C)OCCNC(=O)C(C)(C)N [Compound 1.2, 2-amino-N-(2-((1-(4-amino-2-(ethoxymethyl)-1H-imidazo[4,5-c]quinolin-1-yl)-2-methylpropan-2-yl)oxy)ethyl)-2-methylpropanamide] | potently activating |

Each compound was assayed on BMDM with MDA-MB-468 (HER2neg) (assay: mTNFα from mouse bone marrow derived macrophages co-cultured with MDA-MB-468 (HER2neg) cells). Settings: 24 hours co-culture with HER2neg MDA-MB-468.
Assay type: cell-based
Procedure: as §1

| SMILES | activation of mouse bone marrow cells (mTNFα) |
| --- | --- |
| CCOCc1nc2c(N)nc3ccccc3c2n1CC(C)(C)OCCNC(=O)C(C)(C)N [Compound 1.2, 2-amino-N-(2-((1-(4-amino-2-(ethoxymethyl)-1H-imidazo[4,5-c]quinolin-1-yl)-2-methylpropan-2-yl)oxy)ethyl)-2-methylpropanamide] | potently activating |

From patent publication US20220323596A1, “ANTIBODY CONJUGATES OF TOLL-LIKE RECEPTOR AGONISTS” (SILVERBACK THERAPEUTICS, INC., priority 2018, published 2022)
